Laboratory results: patent publication US20250018014A1, “METHOD FOR TREATING AND/OR PREVENTING REGNASE-1-RELATED DISEASE” (OSAKA UNIVERSITY, priority 2018, published 2025)
Like-named read-outs stand apart in the source and are kept apart here. Residues, ends and D or L forms follow the SMILES beside them.

What was measured:
[1] = target: T1, binding between IKKβ and full-length Regnase-1 (FL_Reg1) (Homo sapiens, UniProt Q5D1E8); experiment: Inhibition of kinase-Regnase-1 binding by the compounds (AlphaScreen), IKKβ
T1 construct: made in house; host or cells: Expi293 cells
T1 sequence (Q5D1E8 1-599): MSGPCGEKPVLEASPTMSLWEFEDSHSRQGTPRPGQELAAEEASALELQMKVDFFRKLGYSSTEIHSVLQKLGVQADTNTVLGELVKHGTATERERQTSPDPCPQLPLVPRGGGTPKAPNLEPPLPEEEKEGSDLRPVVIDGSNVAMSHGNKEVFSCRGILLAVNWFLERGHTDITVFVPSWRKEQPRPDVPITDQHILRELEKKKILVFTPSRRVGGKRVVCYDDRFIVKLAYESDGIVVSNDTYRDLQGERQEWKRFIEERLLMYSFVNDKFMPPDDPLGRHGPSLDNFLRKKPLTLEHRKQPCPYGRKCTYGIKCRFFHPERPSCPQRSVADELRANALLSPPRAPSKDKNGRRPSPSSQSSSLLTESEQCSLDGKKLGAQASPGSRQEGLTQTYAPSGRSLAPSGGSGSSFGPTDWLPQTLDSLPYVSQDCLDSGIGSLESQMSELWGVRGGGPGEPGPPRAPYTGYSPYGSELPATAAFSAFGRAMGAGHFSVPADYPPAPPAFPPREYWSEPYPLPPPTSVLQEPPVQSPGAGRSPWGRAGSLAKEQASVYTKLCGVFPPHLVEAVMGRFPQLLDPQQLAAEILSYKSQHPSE
Experimental: (§1) As a target protein, a construct having a FLAG tag on the N-terminal side and a recognition sequence for biotin ligase BirA on the C-terminal side of the full-length sequence of human Regnase-1 (UniProt ID: Q5D1E8) was prepared (FL_Reg1). The above-mentioned Regnase-1 was expressed in mammalian Expi293 cells, purified with FLAG M2 agarose, and isolated by gel filtration chromatography. When biotinylation was required, methods from nonpatent documents (BMC biotechnology, 2008,8,41; and Protein Science, 1999,8,921-929) were used.
After mixing 2.5 nM of the above-mentioned Regnase-1 and the compound, 2.5 nM of IKKβ or TBK1 was added and reacted at room temperature for two hours. Then, Anti FLAG AlphaLISA Acceptor Beads (manufactured by PerkinElmer) and Glutathione-coated AlphaScreen Donor Beads (manufactured by PerkinElmer) were added, and excited luminescence was measured using En Vision (manufactured by PerkinElmer). As the results, the inhibition rate from the signals obtained when adding the compound at each concentration were calculated, by defining the signal obtained with Regnase-1 alone to be 100% inhibition rate, and the signal obtained when the same amount of solvent (DMSO) is added in place of the compound as 0% inhibition rate. The 50% inhibition concentration (μM) was calculated from the obtained dose response curve (Table 12).

[2] = target: T2, FL_Reg1 (full-length human Regnase-1) phosphorylation by TBK1 (Homo sapiens, UniProt Q5D1E8); experiment: Regnase-1 phosphorylation inhibition by compounds (AlphaScreen), TBK1, full-length Regnase-1; format: biochemical
T2 construct: made in house; host or cells: Expi293 cells
T2 sequence (Q5D1E8 1-599): T1 sequence (Q5D1E8 1-599)
Source text: as §1, with “The full-length sequence of human Regnase-1 (UniProt ID: Q5D1E8) was used to prepare” for “As a target protein,”, “(FL_Reg1) as a target protein.” for “of the full-length sequence of human Regnase-1 (UniProt ID: Q5D1E8) was prepared (FL_Reg1).”, “used. […]” for “used.”
(§2) Using Kinase assay buffer III (manufactured by SignalChem) supplemented with 2 mM DTT, 100 μM sodium vanadate, and 2 mM manganese chloride, kinase (IKKβ (manufactured by SignalChem) or TBK1 (manufactured by SignalChem)) and Regnase-1 were reacted in the presence of 10 μM ATP at room temperature for 2 hours to perform a phosphorylation reaction.
(§3) Phosphorylated Regnase-1 was detected by the AlphaScreen system. After each of the above-mentioned phosphorylated Regnase-1 antibodies was added and reacted at room temperature for one hour, anti-FLAG AlphaLISA Acceptor Beads (manufactured by PerkinElmer) and Protein A AlphaScreen Donor Beads (manufactured by PerkinElmer) were added, and EnVision (manufactured by PerkinElmer) was used to measure the excited luminescence. As a result, phosphorylated Regnase-1 produced by the phosphorylation reaction by kinase was specifically detected, and signals were confirmed to be enhanced in a manner dependent on Regnase-1 and kinase concentrations (FIG. 24).
(§4) After mixing 2 nM of the above-mentioned Regnase-1 and the compound, phosphorylated Regnase-1 produced by the phosphorylation reaction was detected by the AlphaScreen system. As the results, the inhibition rate was calculated from the signals obtained when adding the compound at each concentration, by defining the signal obtained with Regnase-1 alone to be 100% inhibition rate, and the signal obtained when the same amount of solvent (DMSO) is added in place of the compound as 0% inhibition rate. The 50% inhibition concentration (μM) was calculated from the obtained dose response curve (Table 11).

[3] = target: T3, FL_Reg1 (full-length human Regnase-1) phosphorylation by IKKβ (Homo sapiens, UniProt Q5D1E8); experiment: Regnase-1 phosphorylation inhibition by compounds (AlphaScreen), IKKβ, full-length Regnase-1; format: biochemical
T3 construct: made in house; host or cells: Expi293 cells
T3 sequence (Q5D1E8 1-599): T1 sequence (Q5D1E8 1-599)
Source text: as §1, with “The full-length sequence of human Regnase-1 (UniProt ID: Q5D1E8) was used to prepare” for “As a target protein,”, “(FL_Reg1) as a target protein.” for “of the full-length sequence of human Regnase-1 (UniProt ID: Q5D1E8) was prepared (FL_Reg1).”, “used. […]” for “used.”
as §2, §3, §4

[4] = Table 14, binding between IKKβ and Regnase-1, read-out: Binding inhibition FL_Reg1, 50% inhibition concentration (IKKβ)
[5] = Table 13, phosphorylation by TBK1, read-out: Phosphorylation inhibition FL_Reg1, 50% inhibition concentration (TBK1)
[6] = Table 14, phosphorylation by IKKβ, read-out: Phosphorylation inhibition FL_Reg1, 50% inhibition concentration (IKKβ)
[7] = Table 12, 2.5 nM Regnase-1, 2.5 nM IKKβ, AlphaScreen, read-out: 50% inhibition concentration, binding between Regnase-1 and IKKβ, FL_Reg1
[8] = Table 11, 2 nM Regnase-1, AlphaScreen, read-out: 50% inhibition concentration, Regnase-1 phosphorylation, FL_Reg1, TBK1
[9] = Table 11, 2 nM Regnase-1, AlphaScreen, read-out: 50% inhibition concentration, Regnase-1 phosphorylation, FL_Reg1, IKKβ

SMILES | IC50 [1, 4] | IC50 [2, 5] | IC50 [3, 6] | IC50 [1, 7] | IC50 [2, 8] | IC50 [3, 9]
CC[C@H](C)[C@@H]1NC(=O)[C@H](Cc2c[nH]c3ccccc23)NC(=O)[C@H](CCC(N)=O)NC(=O)[C@H](Cc2ccc(O)cc2)NC(=O)[C@H](C(C)C)NC(=O)[C@H](C)NC(=O)[C@H](Cc2ccc(O)cc2)NC(=O)[C@H](CCCNC(=N)N)NC(=O)[C@H](C)N(C)C(=O)C[C@@H](C(=O)N2CCCC2)NC(=O)[C@@H]2CCCN2C(=O)[C@H](Cc2ccc(O)cc2)NC1=O [PP12] (HELM PEPTIDE1{[meA].R.Y.A.V.Y.Q.W.I.Y.P.D.[C1CCN([*:1])C1]}$PEPTIDE1,PEPTIDE1,1:R1-12:R3$$$V2.0) | > 62.1 µM | 12.7 µM | 6.8 µM | – | – | –
CC[C@H](C)[C@@H]1NC(=O)[C@H](CCCNC(=N)N)NC(=O)[C@H](Cc2ccc(O)cc2)NC(=O)[C@H](Cc2c[nH]c3ccccc23)NC(=O)[C@H](C)NC(=O)[C@H](CO)NC(=O)[C@H](C)NC(=O)[C@H](Cc2c[nH]cn2)NC(=O)[C@H](CCCCN)NC(=O)[C@@H](C)N(C)C(=O)C[C@@H](C(=O)N2CCCC2)NC(=O)[C@H](Cc2c[nH]c3ccccc23)NC1=O [PP3] (HELM PEPTIDE1{[C[C@H](C(=O)[*:2])N(C)[*:1]].K.H.A.S.A.W.Y.R.I.W.D.[C1CCN([*:1])C1]}$PEPTIDE1,PEPTIDE1,1:R1-12:R3$$$V2.0) | – | – | – | 8.3 µM | 3.9 µM | 4.6 µM
CC[C@H](C)[C@@H]1NC(=O)[C@H](CCCCN)NC(=O)[C@H](Cc2ccc(O)cc2)NC(=O)[C@H](Cc2ccccc2)NC(=O)[C@H](C(C)C)NC(=O)[C@H](C)N(C)C(=O)C[C@@H](C(=O)N2CCCC2)NC(=O)[C@H](Cc2c[nH]c3ccccc23)NC(=O)[C@H](CC(N)=O)NC(=O)[C@H](Cc2ccc(O)cc2)NC(=O)[C@H](Cc2c[nH]c3ccccc23)NC1=O [PP19] (HELM PEPTIDE1{[meA].V.F.Y.K.I.W.Y.N.W.D.[C1CCN([*:1])C1]}$PEPTIDE1,PEPTIDE1,1:R1-11:R3$$$V2.0) | 5.8 µM | 3.7 µM | 5.4 µM | – | – | –

The remaining lines, values ahead:

IC50 [1, 4] | IC50 [2, 5] | IC50 [3, 6] | IC50 [1, 7] | IC50 [2, 8] | IC50 [3, 9] | SMILES
> 62.1 µM | – | – | > 62.1 µM | 54.5 µM | 28.1 µM | CC(C)[C@@H]1NC(=O)[C@H](CCCCN)NC(=O)[C@H](Cc2ccc(O)cc2)NC(=O)[C@H](Cc2c[nH]c3ccccc23)NC(=O)[C@H](CO)NC(=O)[C@H]([C@@H](C)O)NC(=O)[C@H](C)N(C)C(=O)C[C@@H](C(=O)N2CCCC2)NC(=O)[C@H](CCC(N)=O)NC(=O)CNC(=O)[C@H](Cc2c[nH]c3ccccc23)NC(=O)[C@H](CC(N)=O)NC1=O [PP1] (HELM PEPTIDE1{[meA].T.S.W.Y.K.V.N.W.G.Q.D.[C1CCN([*:1])C1]}$PEPTIDE1,PEPTIDE1,1:R1-12:R3$$$V2.0)
< 0.06 µM | < 0.06 µM | 0.5 µM | – | – | – | CC[C@H](C)[C@@H]1NC(=O)[C@H](CC(=O)O)NC(=O)[C@H](C)N(C)C(=O)C[C@@H](C(=O)N2CCCC2)NC(=O)[C@H](Cc2c[nH]c3ccccc23)NC(=O)[C@H](CC(=O)O)NC(=O)[C@H](Cc2c[nH]c3ccccc23)NC(=O)[C@H](Cc2ccc(O)cc2)NC(=O)[C@H](CC(=O)O)NC(=O)[C@H](Cc2ccccc2)NC(=O)[C@H](Cc2c[nH]c3ccccc23)NC1=O [PP17] (HELM PEPTIDE1{[meA].D.I.W.F.D.Y.W.D.W.D.[C1CCN([*:1])C1]}$PEPTIDE1,PEPTIDE1,1:R1-11:R3$$$V2.0)
– | – | – | 42.1 µM | 13.1 µM | 17 µM | CC[C@H](C)[C@@H]1NC(=O)[C@H](CCCCN)NC(=O)[C@H](Cc2ccccc2)NC(=O)[C@H](Cc2c[nH]c3ccccc23)NC(=O)[C@H](CO)NC(=O)[C@H](CO)NC(=O)[C@H](CC(N)=O)NC(=O)[C@@H]2CCCN2C(=O)[C@@H](C)N(C)C(=O)C[C@@H](C(=O)N2CCCC2)NC(=O)[C@H](Cc2c[nH]c3ccccc23)NC1=O [PP6] (HELM PEPTIDE1{[C[C@H](C(=O)[*:2])N(C)[*:1]].P.N.S.S.W.F.K.I.W.D.[C1CCN([*:1])C1]}$PEPTIDE1,PEPTIDE1,1:R1-11:R3$$$V2.0)
